Experimental data published in patent US20110086826A1, “LIPOSOMAL CAMPTOTHECINS AND USES THEREOF” (TEKMIRA PHARMACEUTICALS CORPORATION, priority 2000, published 2011).

Columns and labels:
[1] = Myelosuppression and neutropenia studies (blood CBC and differential); type: in vivo, ICR mice; conditions: 10 mg/kg i.v.
Protocol: Myelosuppression and neutropenia studies. […] Empty vesicles were administered as a control. CBC and differential analysis was performed at Central Labs for Veterinarians (Langley, BC) to quantify cellular levels, ratios and morphology.

[2] = MTD of free topotecan in humans; conditions: 1.5 vs 14 mg/M^2
[3] = tested on: LX-1 human SCLC xenografts; test: Subcutaneous LX-1 human SCLC xenografts; conditions: for % ILS (increase in lifespan) / DRD (drug related deaths) / LCK (log cell kill, gross) / MWL (maximum mean weight loss): LX-1 s.c.
Description: Topotecan was encapsulated in SM:CH (55:45) vesicles at a drug-to-lipid ratio of 0.10 (w/w) using the Mg-A23187 method as described in Experimental. All dilutions were made in sterile 0.9% saline immediately prior to injection. Drug administration was made via the lateral tail vein at 10 days post-tumor cell implantation when the tumors were 100-300 mm^3. Data points represent mean±SEM (n=6).
Topotecan was encapsulated in SM:CH (55:45) vesicles at a drug-to-lipid ratio of 0.10 (w/w) using the Mg-A23187 method as described in Experimental. All dilutions were made in sterile 0.9% saline immediately prior to injection. Drug administration was made via the lateral tail vein on day 14, 21 and 28 post-tumor cell implantation. Data points represent mean±SEM (n=6).
Tumor Models. […] Human MX-1 and LX-1 cell lines were obtained from the DCTD Tumor Repository in Frederick, Md. These cell lines were received as tumor fragments and were propagated in NCr nude mice by serial transplantation of 3×3 mm fragments. Experiments were not initiated until the cell lines had been through 3 passages in nude mice and the tumor lines were restarted when the passage number reached 10.
Efficacy Studies. […] For the MX-1 and LX-1 tumor models, tumor volume was determined by repeated perpendicular measurements of tumor dimensions and using the formula:

[4] = day 3 post-injection (first line of treatment)
[5] = day 21 post-injection (second line of treatment)
[6] = q7dx3, NCTEF-007, 10 mg/kg/dose i.v.
[7] = q7dx3, NCTEF-007, 30 mg/kg/dose i.v.
[8] = q7dx3, NCTEF-011, 10 mg/kg/dose i.v.
[9] = q7dx3, NCTEF-011, 30 mg/kg/dose i.v.

With `CC[C@@]1(O)C(=O)OCc2c1cc1n(c2=O)Cc2cc3c(CN(C)C)c(O)ccc3nc2-1` [Free, 9-dimethylaminomethyl-10-hydroxy-camptothecin] the Baso ([1]; day 3 post-injection) was 0.057 ± 0.040 ×10^9/L, the Eosino ([1]; day 3 post-injection) was 0.031 ± 0.021 ×10^9/L and the Lympho ([1]; day 3 post-injection) was 5.90 ± 1.70 ×10^9/L. The Mono ([1]; day 3 post-injection) was 0.177 ± 0.072 ×10^9/L, the Neutro ([1]; day 3 post-injection) was 0.520 ± 0.200 ×10^9/L and the WBC ([1]; day 3 post-injection) was 6.70 ± 1.95 ×10^9/L. The Hb [1, 4] was 136 ± 05 g/L, the Hc [1, 4] was 0.444 ± 0.012 L/L and the PLT [1, 4] was 879 ± 145 ×10^9/L. The RBC [1, 4] was 8.47 ± 0.39 ×10^12/L, the Baso ([1]; day 21 post-injection) was 0.088 ± 0.071 ×10^9/L and the Eosino ([1]; day 21 post-injection) was 0.034 ± .016 ×10^9/L. The Lympho ([1]; day 21 post-injection) was 4.33 ± 0.93 ×10^9/L, the Mono ([1]; day 21 post-injection) was 0.247 ± 0.180 ×10^9/L and the Neutro ([1]; day 21 post-injection) was 0.480 ± 0.122 ×10^9/L. The WBC ([1]; day 21 post-injection) was 5.16 ± 1.18 ×10^9/L, the Hb [1, 5] was 154 ± 04 g/L and the Hc [1, 5] was 0.493 ± 0.014 L/L. The PLT [1, 5] was 907 ± 059 ×10^9/L, the RBC [1, 5] was 9.81 ± 0.37 ×10^12/L and the “human tolerated dose as share of the MTD in mice” value [2] was 11%. The “anti-tumor activity (in words)” value ([3]; LX-1, initial single dose studies) was “inactive at evaluated doses<30 mg/kg”, the “% ILS (increase in lifespan)” value [3, 6] was 21% and the “DRD (drug related deaths)” value [3, 6] was 0/6. The “LCK (log cell kill, gross)” value [3, 6] was 0.14, the “MWL (maximum mean weight loss)” value [3, 6] was −6.2% and the “DRD (drug related deaths)” value [3, 7] was 0/6. For the same molecule, the “LCK (log cell kill, gross)” value [3, 7] was 1.53, the “MWL (maximum mean weight loss)” value [3, 7] was −8.8% and the “DRD (drug related deaths)” value [3, 8] was 0/6. For the same molecule, the “MWL (maximum mean weight loss)” value [3, 8] was −3.6%, the “DRD (drug related deaths)” value [3, 9] was 2/6 and the “MWL (maximum mean weight loss)” value [3, 9] was −16.4%. For the same molecule, the “% ILS (increase in lifespan)” value ([3]; single i.v. dose 5 mg/kg) was 0%, the “DRD (drug related deaths)” value ([3]; single i.v. dose 5 mg/kg) was 0/6 and the “LCK (log cell kill, gross)” value ([3]; single i.v. dose 5 mg/kg) was 0.13. The “MWL (maximum mean weight loss)” value ([3]; single i.v. dose 5 mg/kg) was “+”, the “% ILS (increase in lifespan)” value ([3]; single i.v. dose 10 mg/kg) was 0% and the “DRD (drug related deaths)” value ([3]; single i.v. dose 10 mg/kg) was 0/6. The “LCK (log cell kill, gross)” value ([3]; single i.v. dose 10 mg/kg) was 0.18, the “MWL (maximum mean weight loss)” value ([3]; single i.v. dose 10 mg/kg) was “+” and the “% ILS (increase in lifespan)” value ([3]; single i.v. dose 30 mg/kg) was 7%. The “DRD (drug related deaths)” value ([3]; single i.v. dose 30 mg/kg) was 0/6, the “LCK (log cell kill, gross)” value ([3]; single i.v. dose 30 mg/kg) was 0.27 and the “MWL (maximum mean weight loss)” value ([3]; single i.v. dose 30 mg/kg) was −1.3%.
